Measurements reported in ChEMBL document CHEMBL1201862, “PubChem BioAssay data set” (2004).
Values belong to the molecule of their own block, whether it stands above or below them. The source made the active and inactive calls.

Columns and labels:
[1] = target: Intestinal-type alkaline phosphatase (Homo sapiens, UniProt P09923); experiment: inhibition of human intestinal alkaline phosphatase – biochemical, dose response (AID 488876); type: functional
[2] = Luminescence Cell-Based Dose Retest to Confirm Inhibitors of Cancer Stem Cells. [Related pubchem assays (depositor defined):AID2717, AID2721]; type: functional; conditions: Homo sapiens
[3] = target: Troponin, cardiac muscle (Homo sapiens, UniProt P19429+P45379+P63316); experiment: compounds desensitizing RTF to calcium – biochemical, fluorescence, cardiac regulated thin filaments, triplicate IC50, dose response (AID 504742); type: protein-complex assay
[4] = target: T1, Dual specificity protein phosphatase 6 (Rattus norvegicus, UniProt Q64346); type: functional
T1 sequence (Q64346 whole entry): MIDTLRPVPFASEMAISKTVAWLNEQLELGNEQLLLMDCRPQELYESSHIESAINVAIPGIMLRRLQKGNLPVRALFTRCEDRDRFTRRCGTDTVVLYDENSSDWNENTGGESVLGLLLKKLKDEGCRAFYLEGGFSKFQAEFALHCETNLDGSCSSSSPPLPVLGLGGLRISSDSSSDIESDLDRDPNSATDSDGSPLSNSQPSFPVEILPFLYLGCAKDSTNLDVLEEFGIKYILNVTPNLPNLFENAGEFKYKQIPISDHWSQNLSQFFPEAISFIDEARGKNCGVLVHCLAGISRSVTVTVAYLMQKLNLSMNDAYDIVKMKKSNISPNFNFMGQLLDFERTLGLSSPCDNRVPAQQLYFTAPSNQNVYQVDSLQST

[5] = target: T1, Dual specificity protein phosphatase 6
[6] = target: Dual specificity mitogen-activated protein kinase kinase 2 (Homo sapiens, UniProt P36507); experiment: Navigating the Kinome. Panel member name: MAP2K2; type: functional
[7] = target: cAMP-dependent protein kinase catalytic subunit PRKX (Homo sapiens, UniProt P51817); type: functional
[8] = target: Ribosomal protein S6 kinase alpha-3 (Homo sapiens, UniProt P51812); type: functional;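 further: measured within a kinome-wide profiling panel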
[9] = target: Heat shock protein HSP 90-alpha (Homo sapiens, UniProt P07900); experiment: Luminescence-based dose response biochemical high throughput screening assay for inhibitors of the Heat Shock Protein 90 (HSP90). [Related pubchem assays: 1831 (Summary AID.), 1846 (Confirmation screen.), 1789 (Primary screen.)]
[10] = target: Albumin (Bos taurus, UniProt P02769); experiment: Counterscreen for inhibitors of T-cell receptor (TCR)-CD3 interaction: Fluorescence-based biochemical high throughput dose response assay to identify inhibitors of T-cell receptor (TCR)-CD3 interaction using a TAMRA-labeled BSA probe.; type: functional
[11] = target: T2, Aminopeptidase N (Plasmodium falciparum FcB1/Columbia, UniProt O96935); experiment: malaria alanyl aminopeptidase activity blockers – biochemical, fluorogenic H-Leu-NHMec substrate, 1536-well (AID 1445); set-up: species or system Plasmodium falciparum 3D7, 3D7
T2 sequence (O96935 whole entry): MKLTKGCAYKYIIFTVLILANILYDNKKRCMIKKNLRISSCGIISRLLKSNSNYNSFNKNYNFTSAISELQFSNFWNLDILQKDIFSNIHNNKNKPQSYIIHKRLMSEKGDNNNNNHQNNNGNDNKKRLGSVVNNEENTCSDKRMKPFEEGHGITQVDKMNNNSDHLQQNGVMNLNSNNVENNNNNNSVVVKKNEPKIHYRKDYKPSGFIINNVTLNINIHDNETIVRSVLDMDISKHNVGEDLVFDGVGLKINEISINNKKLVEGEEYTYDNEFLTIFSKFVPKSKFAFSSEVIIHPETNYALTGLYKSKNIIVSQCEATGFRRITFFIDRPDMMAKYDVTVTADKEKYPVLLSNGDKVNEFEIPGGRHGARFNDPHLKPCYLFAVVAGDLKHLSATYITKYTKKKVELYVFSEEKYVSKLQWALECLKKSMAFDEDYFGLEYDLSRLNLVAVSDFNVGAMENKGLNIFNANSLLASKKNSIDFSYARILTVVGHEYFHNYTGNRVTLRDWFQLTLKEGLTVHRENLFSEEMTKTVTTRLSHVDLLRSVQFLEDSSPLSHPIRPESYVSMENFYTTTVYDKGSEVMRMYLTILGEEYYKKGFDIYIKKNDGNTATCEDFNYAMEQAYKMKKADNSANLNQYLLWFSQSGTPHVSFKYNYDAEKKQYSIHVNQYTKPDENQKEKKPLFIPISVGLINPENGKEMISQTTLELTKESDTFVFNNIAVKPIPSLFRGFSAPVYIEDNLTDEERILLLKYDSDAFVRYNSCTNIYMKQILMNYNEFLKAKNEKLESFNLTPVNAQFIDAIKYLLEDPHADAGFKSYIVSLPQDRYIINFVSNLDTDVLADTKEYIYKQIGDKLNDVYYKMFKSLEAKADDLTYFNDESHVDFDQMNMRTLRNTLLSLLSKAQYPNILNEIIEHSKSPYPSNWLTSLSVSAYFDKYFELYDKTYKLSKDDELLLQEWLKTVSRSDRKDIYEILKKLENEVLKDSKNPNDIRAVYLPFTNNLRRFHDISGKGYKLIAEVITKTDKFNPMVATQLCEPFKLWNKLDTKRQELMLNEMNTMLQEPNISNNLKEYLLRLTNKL

[12] = target: Mitogen-activated protein kinase 13 (Homo sapiens, UniProt O15264); type: functional
[13] = target: Serine/threonine-protein kinase pim-3 (Homo sapiens, UniProt Q86V86); type: functional;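 further: value obtained as one member of a broad kinase panel profiling effort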
[14] = target: MAP/microtubule affinity-regulating kinase 4 (Homo sapiens, UniProt Q96L34); experiment: Navigating the Kinome. Panel member name: MARK4; type: functional
[15] = target: RAC-gamma serine/threonine-protein kinase (Homo sapiens, UniProt Q9Y243); type: functional
[16] = target: Maternal embryonic leucine zipper kinase (Homo sapiens, UniProt Q14680); type: functional
[17] = target: Serine/threonine-protein kinase Nek4 (Homo sapiens, UniProt P51957); type: functional
[18] = target: Tyrosine-protein kinase Lyn (Homo sapiens, UniProt P07948); type: functional;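 further: lyn as one member of a kinase panel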
[19] = target: Ephrin type-A receptor 2 (Homo sapiens, UniProt P29317); type: functional;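 further: EPHA2 tested as one member of a kinome-wide kinase panel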
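Wherever AC50 is given: cells exposed to compound for roughly 70 hours or longer before luminescence read.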

Chain of Ribosomal protein S6 kinase alpha-3 (P51812 whole entry): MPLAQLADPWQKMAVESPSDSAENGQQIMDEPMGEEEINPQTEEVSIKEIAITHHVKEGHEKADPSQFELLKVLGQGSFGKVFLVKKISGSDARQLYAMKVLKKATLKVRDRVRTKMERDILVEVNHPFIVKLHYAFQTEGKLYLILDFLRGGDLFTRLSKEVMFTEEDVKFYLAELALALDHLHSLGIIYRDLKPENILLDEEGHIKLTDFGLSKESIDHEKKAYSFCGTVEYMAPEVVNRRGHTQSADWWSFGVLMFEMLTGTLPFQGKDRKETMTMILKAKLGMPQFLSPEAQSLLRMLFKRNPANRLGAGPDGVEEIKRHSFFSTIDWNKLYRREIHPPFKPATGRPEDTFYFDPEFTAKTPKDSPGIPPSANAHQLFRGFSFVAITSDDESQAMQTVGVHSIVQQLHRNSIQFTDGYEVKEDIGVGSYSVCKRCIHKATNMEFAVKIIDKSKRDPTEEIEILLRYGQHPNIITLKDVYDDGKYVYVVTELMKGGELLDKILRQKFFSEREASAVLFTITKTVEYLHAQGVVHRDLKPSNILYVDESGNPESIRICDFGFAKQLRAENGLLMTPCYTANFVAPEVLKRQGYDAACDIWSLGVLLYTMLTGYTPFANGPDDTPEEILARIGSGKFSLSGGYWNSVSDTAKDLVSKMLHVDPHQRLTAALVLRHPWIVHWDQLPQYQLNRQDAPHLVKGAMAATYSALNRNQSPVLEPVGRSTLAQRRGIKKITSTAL
Chain of Mitogen-activated protein kinase 13 (O15264 whole entry): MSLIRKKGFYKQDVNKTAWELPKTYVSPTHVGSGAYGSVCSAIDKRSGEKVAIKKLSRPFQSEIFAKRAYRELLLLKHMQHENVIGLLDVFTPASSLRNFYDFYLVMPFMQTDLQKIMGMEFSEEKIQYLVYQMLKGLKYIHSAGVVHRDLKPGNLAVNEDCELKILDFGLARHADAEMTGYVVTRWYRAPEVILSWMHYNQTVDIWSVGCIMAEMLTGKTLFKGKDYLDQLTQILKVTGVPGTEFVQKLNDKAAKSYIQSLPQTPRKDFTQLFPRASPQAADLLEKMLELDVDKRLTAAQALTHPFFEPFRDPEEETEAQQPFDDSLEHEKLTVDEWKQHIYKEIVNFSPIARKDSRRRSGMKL
Chain of Maternal embryonic leucine zipper kinase (Q14680 whole entry): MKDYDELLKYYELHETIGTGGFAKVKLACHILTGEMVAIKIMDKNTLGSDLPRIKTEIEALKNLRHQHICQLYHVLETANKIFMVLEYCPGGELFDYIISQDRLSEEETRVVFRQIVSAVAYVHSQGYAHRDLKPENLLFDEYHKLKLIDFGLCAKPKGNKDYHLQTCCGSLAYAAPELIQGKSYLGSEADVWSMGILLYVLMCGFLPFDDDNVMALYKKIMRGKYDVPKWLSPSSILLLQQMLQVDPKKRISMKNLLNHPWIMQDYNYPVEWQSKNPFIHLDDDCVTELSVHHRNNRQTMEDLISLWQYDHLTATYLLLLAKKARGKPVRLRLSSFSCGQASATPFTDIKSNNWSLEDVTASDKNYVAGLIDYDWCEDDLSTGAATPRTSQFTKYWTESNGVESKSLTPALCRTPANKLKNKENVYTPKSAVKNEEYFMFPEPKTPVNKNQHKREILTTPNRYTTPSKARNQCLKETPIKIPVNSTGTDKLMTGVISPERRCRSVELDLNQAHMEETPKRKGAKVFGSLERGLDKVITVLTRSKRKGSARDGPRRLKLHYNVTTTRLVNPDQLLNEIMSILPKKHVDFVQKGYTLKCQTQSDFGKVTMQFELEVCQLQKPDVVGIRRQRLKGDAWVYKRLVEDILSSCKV
Chain of Serine/threonine-protein kinase Nek4 (P51957 whole entry): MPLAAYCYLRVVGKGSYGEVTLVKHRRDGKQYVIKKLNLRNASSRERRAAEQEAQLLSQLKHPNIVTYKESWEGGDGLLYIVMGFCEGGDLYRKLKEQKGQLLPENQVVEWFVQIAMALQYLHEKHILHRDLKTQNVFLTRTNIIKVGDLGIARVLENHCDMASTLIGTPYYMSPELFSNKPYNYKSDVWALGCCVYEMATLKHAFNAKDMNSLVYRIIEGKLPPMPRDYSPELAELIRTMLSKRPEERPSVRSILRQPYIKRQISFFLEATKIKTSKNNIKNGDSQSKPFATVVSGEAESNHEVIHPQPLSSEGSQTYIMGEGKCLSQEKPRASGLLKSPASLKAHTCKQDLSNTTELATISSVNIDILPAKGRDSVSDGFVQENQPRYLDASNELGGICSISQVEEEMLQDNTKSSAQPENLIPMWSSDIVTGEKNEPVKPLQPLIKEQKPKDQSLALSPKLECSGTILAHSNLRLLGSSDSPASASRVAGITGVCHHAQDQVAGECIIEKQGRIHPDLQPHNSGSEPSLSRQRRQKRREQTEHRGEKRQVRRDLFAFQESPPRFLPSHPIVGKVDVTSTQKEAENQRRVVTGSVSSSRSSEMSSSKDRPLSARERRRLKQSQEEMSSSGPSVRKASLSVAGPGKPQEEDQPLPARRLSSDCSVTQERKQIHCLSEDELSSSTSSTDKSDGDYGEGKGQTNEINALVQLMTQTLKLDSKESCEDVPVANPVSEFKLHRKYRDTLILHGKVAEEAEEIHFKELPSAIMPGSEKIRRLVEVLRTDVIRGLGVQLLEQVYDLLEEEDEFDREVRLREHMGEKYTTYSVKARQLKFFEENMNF
Chain of Dual specificity mitogen-activated protein kinase kinase 2 (P36507 whole entry): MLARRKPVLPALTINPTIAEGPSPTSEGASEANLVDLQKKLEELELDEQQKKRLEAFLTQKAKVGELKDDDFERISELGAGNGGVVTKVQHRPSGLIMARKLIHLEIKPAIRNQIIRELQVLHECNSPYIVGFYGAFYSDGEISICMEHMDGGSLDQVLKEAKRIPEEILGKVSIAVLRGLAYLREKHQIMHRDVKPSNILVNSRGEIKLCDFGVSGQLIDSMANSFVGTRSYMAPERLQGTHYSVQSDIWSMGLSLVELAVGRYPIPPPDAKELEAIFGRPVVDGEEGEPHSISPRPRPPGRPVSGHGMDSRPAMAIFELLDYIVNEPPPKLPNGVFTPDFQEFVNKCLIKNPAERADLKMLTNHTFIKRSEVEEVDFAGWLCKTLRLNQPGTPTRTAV
Chain of cAMP-dependent protein kinase catalytic subunit PRKX (P51817 whole entry): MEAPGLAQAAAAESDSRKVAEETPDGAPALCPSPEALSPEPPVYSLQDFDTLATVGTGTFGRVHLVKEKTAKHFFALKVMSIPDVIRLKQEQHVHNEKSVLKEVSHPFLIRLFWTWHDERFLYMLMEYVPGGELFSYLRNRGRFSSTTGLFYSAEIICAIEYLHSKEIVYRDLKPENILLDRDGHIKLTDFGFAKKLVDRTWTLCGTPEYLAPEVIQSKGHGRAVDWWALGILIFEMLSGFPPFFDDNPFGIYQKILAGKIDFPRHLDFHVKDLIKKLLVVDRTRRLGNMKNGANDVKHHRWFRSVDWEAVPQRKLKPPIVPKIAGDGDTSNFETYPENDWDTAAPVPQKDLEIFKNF
Chain of Ephrin type-A receptor 2 (P29317 whole entry): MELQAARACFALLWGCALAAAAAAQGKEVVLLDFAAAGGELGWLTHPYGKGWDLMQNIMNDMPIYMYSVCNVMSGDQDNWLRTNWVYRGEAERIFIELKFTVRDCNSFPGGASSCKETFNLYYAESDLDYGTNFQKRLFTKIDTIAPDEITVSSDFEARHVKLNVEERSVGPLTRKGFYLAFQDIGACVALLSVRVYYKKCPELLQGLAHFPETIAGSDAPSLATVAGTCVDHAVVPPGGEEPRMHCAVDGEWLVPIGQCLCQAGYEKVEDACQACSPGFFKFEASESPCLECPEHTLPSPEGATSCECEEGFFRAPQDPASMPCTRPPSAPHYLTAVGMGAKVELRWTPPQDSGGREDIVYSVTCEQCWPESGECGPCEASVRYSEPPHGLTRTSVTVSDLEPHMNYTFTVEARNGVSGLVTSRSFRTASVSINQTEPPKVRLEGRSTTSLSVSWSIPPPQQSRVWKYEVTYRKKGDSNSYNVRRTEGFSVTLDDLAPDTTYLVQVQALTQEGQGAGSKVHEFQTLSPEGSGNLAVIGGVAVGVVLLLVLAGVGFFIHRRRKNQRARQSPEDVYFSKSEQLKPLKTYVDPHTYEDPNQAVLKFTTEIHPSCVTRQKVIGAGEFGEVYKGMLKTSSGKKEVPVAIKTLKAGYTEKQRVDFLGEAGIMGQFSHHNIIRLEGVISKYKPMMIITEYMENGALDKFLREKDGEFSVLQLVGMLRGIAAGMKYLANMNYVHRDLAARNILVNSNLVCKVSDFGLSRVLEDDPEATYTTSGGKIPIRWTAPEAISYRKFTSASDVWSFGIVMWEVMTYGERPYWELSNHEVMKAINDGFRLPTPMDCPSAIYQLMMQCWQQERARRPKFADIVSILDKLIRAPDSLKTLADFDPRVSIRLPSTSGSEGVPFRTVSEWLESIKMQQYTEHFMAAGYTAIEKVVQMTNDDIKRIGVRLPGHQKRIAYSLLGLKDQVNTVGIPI
Chain of Intestinal-type alkaline phosphatase (P09923 whole entry): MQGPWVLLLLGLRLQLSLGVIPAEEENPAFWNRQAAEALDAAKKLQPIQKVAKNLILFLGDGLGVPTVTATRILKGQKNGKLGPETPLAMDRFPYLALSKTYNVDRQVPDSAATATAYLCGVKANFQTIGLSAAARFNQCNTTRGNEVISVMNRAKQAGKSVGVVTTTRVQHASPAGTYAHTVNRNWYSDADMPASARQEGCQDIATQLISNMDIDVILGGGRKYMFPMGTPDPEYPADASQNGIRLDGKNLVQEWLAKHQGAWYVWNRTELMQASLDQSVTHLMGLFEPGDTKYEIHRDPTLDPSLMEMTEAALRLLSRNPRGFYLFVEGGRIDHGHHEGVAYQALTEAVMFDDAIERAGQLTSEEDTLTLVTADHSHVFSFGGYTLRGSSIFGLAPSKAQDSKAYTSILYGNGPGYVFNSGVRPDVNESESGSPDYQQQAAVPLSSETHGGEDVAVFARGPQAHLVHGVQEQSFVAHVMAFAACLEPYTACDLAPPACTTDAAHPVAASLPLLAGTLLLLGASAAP

Compound: O=C1/C(=C\c2cccc(O)c2O)SC(=S)N1Cc1ccccc1
- IC50 [1]: > 100 µM (inactive)
- AC50 [2]: 1.67 µM (active)

Compound: COc1cccc2c1NC(C(=O)O)C1CC=CC21 (centres undefined)
- IC50 [3]: 27.7 µM (inactive)
- IC50 [4]: 13.1 µM (active)
- IC50 [5]: 14 µM (active)

- Ki [6]: 398 nM (active)
- Ki [7]: > 3.16 µM (inactive)
- Ki [8]: 794 nM (active)
Compound: COc1c(-c2nc3ccccc3[nH]2)c(O)cc2oc(C)cc(=O)c12

Compound: CCc1ccc(S(=O)(=O)/N=C2\C=C(Nc3ccc(O)cc3)C(=O)c3ccccc32)cc1
- IC50 [9]: 1.28 µM (active)

Compound: Cc1cc([N+](=O)[O-])cc(/C=N\NC(=O)C2COc3ccccc3O2)c1O (centres undefined)
- IC50 [10]: > 94.2 µM (inactive)
- IC50 [11]: 3.05 µM (active)

- Ki [12]: 2.51 µM (active)
- Ki [13]: > 7.94 µM (inactive)
- Ki [14]: > 5.01 µM (inactive)
- Ki [15]: > 10 µM (inactive)
- Ki [16]: 2 µM (active)
- Ki [17]: > 6.31 µM (inactive)
- Ki [18]: 251 nM (active)
- Ki [19]: 2.51 µM (active)
Compound: Cc1ccc(F)c(NC(=O)Nc2ccc(-c3cccc4[nH]nc(N)c34)cc2)c1 [LINIFANIB]
